# Measured values: patent US20080199899A1, “Method For Screening Modulators of Mitochondrial Functioning and New Modulators Obtained” (priority 2002, published 2008)
# Non-standard residues stand in square brackets, D forms with d. Residues, ends and D or L forms follow the SMILES beside them. Phe(ol) = N[C@H](CO)Cc1ccccc1; Aib = CC(C)(N)C(=O)O
# What was measured:
# [1] = system: HeLa cells; test: Apoptosis of HeLa cells by fluorescent microscopy or FACS; assay type: cell-based, human; conditions: 5 or 10 μM, 24 or 48 h
# Protocol: Characterization of apoptosis induced on cultured human cells by treatment with MMP inducing peptides. The example shown relates to peptide seq. ID no 3 […]. […] The peptide was then tested on cell: the HeLa cells in exponential growth phase were treated with peptide or mock treated, then analyzed by fluorescent microscopy or FACS to ascertain apoptosis.
# Caspase-3 activation was performed using a fluorescent inhibitor of caspase-3 (FLICA, FAM-DEVD-FMK) from the CaspaTag™ kit (Intergen). The loss of plasma membrane integrity occurring during apoptosis of HeLa cells was determined by 7-Amino Actinomycin D. (7-AAD) incorporation (SIGMA). […] 7-AAD was added to cells at 37° C. for 15 min. Cells were trypsinized, resuspended in PBS and immediately acquired on the FACSCalibur. FAM-DEVD-FMK related fluorescence was detected using the Fl-1 channel. 7-AAD fluorescence was collected in the Fl-3 channel (>650 nm).
# HeLa cells were stained by […] for 15 minutes and observe d using a DM IRB inverted fluorescence microscope (Leica).
# HeLa cells were incubated for 24 or 48 h with 5 or 10 μM of peptide Seq. ID no 3 or left untreated. A. Cells were then stained with JC-1 and Hoechst dyes. […] B. Fluorescence microscopy of the cells, after 24 hours incubation with or without 5 μM peptide and staining with JC-1 dye. […]
# [2] = system: purified mouse liver mitochondria; test: Real-time FCM analysis of mitochondrial transmembrane potential (ΔΨm) with JC-1; assay type: biochemical; conditions: JC-1 loaded mitochondria; 20 μM mClCCP, 30 μM Ca2+ or 5 μM Alamethicin
# Protocol: (§1) Liver mitochondria were isolated from 3-4 weeks old Balb-c mice (IFFA CREDO, Saint Germain sur l'Arbresle, France). Animals were fasted overnight before being killed by […] dislocation. Liver mitochondria were prepared as described (Jacotot, 2000). All steps were carried out at 4° C. Finally, the organelles were resuspended in ‘swelling buffer’, composed by 200 mM sucrose, 5 mM succinate, 10 mM Tris-MOPS (pH 7.4), 1 mM H3PO4, 2 μM Rotenone, and 10 μM EGTA at pH=7.4. Spectrophotometric and flow cytometric analyses were performed in this buffer. The protein content of isolated mitochondria was determined by the Bradford assay.
# Mitochondrial transmembrane potential (ΔΨm) was assessed by 5,5′,6,6′,-tetracholoro-1,1,3,3′-tetraethylbenzimidazolyl carbocyanine iodide (JC-1, Molecular Probes) incorporation. This potential-sensitive cationic dye accumulates in the mitochdndrial matrix according to the Nernst equation (Reers et al., 1991). JC-1 green fluorescence, associated with JC-1 monomers was collected in the FL-1 channel. JC-1 orange fluorescence, associated with the formation of J-aggregates was collected in the FL-2 channel (585+/−21 nm) (Reers et al, 1991). Both fluorescences were recorded in logarithmic amplifier mode, using the PMT at a voltage adjusted to 907 and 622 respectively. Spectral overlap was avoided by adjusting compensation network as follows: FL1-18.5% FL2 and FL2-25.4% FL1. The JC-1 orange/green fluorescence ratio was calculated with the FCS Assistant software.
# Real-time monitoring of ΔΨm was performed on mitochondrial samples containing 1.5 μg proteins in 400 μl of swelling buffer. […] Then drugs were added to the sample, and ΔΨm variations were recorded for the following 16 minutes. Depolarization curves were drawn as previously indicated for swelling curves; the time scale was divided into discrete periods of 1 minute and the mean of JC-1 orange and JC-1 green fluorescence of the corresponding mitochondrial subsets was calculated by the CellQuest Pro software and exported into the Microsoft Excel software.
# [3] = system: purified mouse liver mitochondria; test: Real-time flow cytometry (FCM) analysis of mitochondrial morphology (FSC/SSC) on isolated mitochondria; assay type: biochemical; conditions: for changes of mitochondrial size (FSC) and structure (SSC) (in words): isolated mitochondria, 1-30 μM Ca2+, 20 μM CCCP, alamethicin 5 μg/ml; for induction of MMP / activity on isolated mitochondria (in words): real time test on isolated mitochondria
# Protocol: as §1
# Fluorescence-activated flow cytometry was performed using a 3-color FACSCalibur cytometer equipped with a 15 mW air-cooled 488 nm argon laser (Becton Dickinson, San Jose, Calif.). Mitochondria analyses were performed after appropriate settings of the Forward angle light scatter (FSC)—Side angle light scatter (SSC) detectors (see FIG. 1). Discrimination between mitochondria and cellular debris and noise background was performed by an appropriate gating on FSC-SSC scatter plots (FIG. 1) (Radcliff G, Jaroszeski M J 1998 Methods Mol Biol 91:1-24 Basics of flow cytometry). Systematic confirmation of the validity of this gating was obtained by a labeling of mitochondria with the ΔΨm-insensitive mitochondrial dye MitoTracker® Green (MTG, Molecular Probes, Eugene, Oreg.) (Jacotot et al., 2001). Briefly mitochondria (1.5 μg proteins) were respuspended in 400 μl swelling buffer containing 200 nM MTG for 15 min at room temperature. The organelles were immediately analyzed on the cytometer with the CellQuest Pro software (Becton Dickinson). MTG fluorescence was collected in the FL-1 channel (530+/−15 nm) and analyzed in logarithmic amplifier mode, using the PMT at a voltage adjusted to 907. Data from 20,000 gated mitochondria were recorded and analyzed.
# Mitochondrial size was analyzed through the light scattered by the organelles at low angle using the Forward scatter (FSC) photodiode. Signals were collected using the E-00 setting, with a logarithmic amplification gain of 5.41. Mitochondrial structure was evaluated by the light scattered in the perpendicular direction. It was assessed by the sensitive Side scatter (SSC) photomultiplier tube (PMT), using a voltage of 581, and a linear amplification gain adjusted to 4.27. The morphological changes related to swelling of purified mitochondria were monitored by the increase in mitochondrial size (FSC) and the decrease in the organelle structure (SSC) using the CellQuest Pro software. The FSC/SSC ratio was calculated by the FCS Assistant software and permitted to integrate both variations in size and structure into only one parameter.
# Real-time experiments were performed on mitochondrial samples containing 1.5 μg proteins in 800 μl (=2 ng/µl) of swelling buffer. Samples were acquired on the flow cytometer for 5 minutes to record basal morphological criteria. Then reagents were added to samples, and variations in light scattering were recorded for the following 15 minutes. The sample flow rate was settled to 12 μl+/−3 μl/min for both fixed- and real-time analyses.
# Swelling curves were obtained after plotting FSC or SSC parameters versus time, and division of the time scale into discrete periods of 1 minute. The mean FSC and SSC of mitochondria from every period were calculated by the CellQuest Pro software, and were exported into the Microsoft Excel software.
# [4] = system: purified mouse liver mitochondria; test: FCM analysis of PTP-dependant and PTP-independent MMP after pre-treatment with inhibitors; assay type: biochemical; conditions: for effect on alamethicin induced MMP (in words): 50 μM BA, 10 μM CsA or 10 μM Ruthenium red, then alamethicin 5 μg/ml
# Protocol: Mitochondrial Membrane Permeabilization (MMP) was induced by 1-30 μM Calcium (CaCl2, MERCK), and 5 μg/ml Alamethicin (SIGMA). Ruthenium Red (SIGMA) and the PTP inhibitor Cyclosporine A (CSA, BIOMOL) were added at 10 μM 4 minutes before the addition of the MMP-inducing agents. The uncoupler carbonyl cyanide m-chlorophenylhydrazone (mClCCP, SIGMA) was used at 20 μM to completely collapse A m.
# Fixed-time analyses were performed on mitochondrial samples containing 10 μg proteins in 100 μl of swelling buffer. Samples were submitted to MPP-inducing reagents for 30 min at 25° C. Samples were immediately analyzed by flow cytometry, and data from 20.000 mitochondria were recorded. The percentage of specific swelling determined on forward scatter was calculated as follows;
# Fixed-time detection of ΔΨm was performed on mitochondrial samples containing 10 μg proteins in 100 μl of swelling buffer. Samples were submitted to MPT-inducing drugs for 15 min at 25° C., and JC-1 was added at 800 nM for 15 min at 37° C. in the dark. Samples were immediately analyzed by flow cytometry, and data from 20.000 mitochondria (gated on FSC-SSC parameters) were recorded. This assay permitted to quantify the percentage of highly energized mitochondria (with both orange and green fluorescence) and depolarized mitochondria (with green fluorescence only) as depicted in part C2 of FIG. 1.
# Mitochondria were exposed 5 minutes to 50 μM BA, 10 μM Csa, or 10 μM Ruthenium red followed by 30 min treatment with Ca^2+ (30 μM) or alamethicin (5 μg/ml). Then, mitochondria were subjected to FCM analysis of ΔΨm (JC-1 orange fluorescence) and SSC (Mean+/−SD; n=3).
# [5] = system: isolated mitochondria; test: Cytochrome C release from isolated mitochondria by western blot on the supernatant; assay type: biochemical, mouse; conditions: 10 μM peptide, 30 minutes; FIG. 9B
# Protocol: B. Cytochrome C release: untreated mitochondria (1), or treated with 5 μM Alamethicin (2) or 10 μM peptide seq. ID No 2 during 30 minutes were assayed for cytochrome C release by western blot on the supernatant.
# [6] = system: purified mouse liver mitochondria; assay type: biochemical; conditions: FIG. 9A
# Protocol: as §1
# Large amplitude swelling was determined with Ultrospec 3300 pro […] (Amersham Pharmacia Bioech, Cambridge, England) by measuring Absorbance at 545 nm (A545) (Bernardi et al., 1992). […] Basal absorbance was recorded for 4 minutes, MPP-inducing reagents were added to samples and large amplitude swelling was monitored by the decrease in absorbance for the following 16 minutes. Data were recorded using the Data capture software (Excel, Uppsala, Sweden). […] Percentages of specific swelling were calculated as follows: (ACa2+−AReagent)×100/(ACa2+−Ainit) were ACa2+, AReagent and Ainit correspond to the absorbance value obtained for CaCl2-treated, reagent-treated and pre-treated mitochondria respectively.
# [7] = system: mammary adenocarcinoma MDA-MD-231 cells; test: Apoptosis by FACS analysis (ΔΨm loss and cell membrane permeability), adenocarcinoma cells; assay type: cell-based, human; conditions: Adenocarcinoma MDA-MD231 cells; 24 hours incubation with 5 to 20 μM peptide
# [8] = system: Jurkat cells; test: Apoptosis by FACS analysis (ΔΨm loss and cell membrane permeability), Jurkat cells; assay type: cell-based, human; conditions: 24 hours incubation with 5 to 20 μM peptide
# [9] = 50 μM BA or 10 μM CsA 5 min, then 30 μM Ca2+ 30 min
compound,measurement,setting,value
RKKRRQRRRCGGLANKKGAWLDSTKATRYLVKTESWILRN [SEQ ID N^o 4],apoptosis of HeLa cells (in words),[1],mitochondrio-toxic activity
CC(=O)NC(C)(C)C(=O)N1CCC[C@H]1C(=O)NC(C)(C)C(=O)N[C@@H](C)C(=O)NC(C)(C)C(=O)N[C@@H](C)C(=O)N[C@@H](CCC(N)=O)C(=O)NC(C)(C)C(=O)N[C@H](C(=O)NC(C)(C)C(=O)NCC(=O)N[C@@H](CC(C)C)C(=O)NC(C)(C)C(=O)N1CCC[C@H]1C(=O)N[C@H](C(=O)NC(C)(C)C(=O)NC(C)(C)C(=O)N[C@@H](CCC(=O)O)C(=O)N[C@@H](CCC(N)=O)C(=O)N[C@H](CO)Cc1ccccc1)C(C)C)C(C)C [alamethicin] (Ac-[Aib]P[Aib]A[Aib]AQ[Aib]V[Aib]GL[Aib]PV[Aib][Aib]EQ[Phe(ol)]),changes of JC-1 orange fluorescence (ΔΨm) (in words),[2],decrease in JC-1 orange fluorescence
same,changes of mitochondrial size (FSC) and structure (SSC) (in words),[3],simultaneous FSC increase and SSC decrease
N.N.N.N.N.N.N.N.N.N.N.N.N.N.[Cl-].[Cl-].[Cl-].[Cl-].[Cl-].[Cl-].[O-2].[O-2].[Ru+3].[Ru+3].[Ru+4] [Ruthenium red],inhibition of Ca2+ induced SSC decrease,"[4]; 10 μM Ruthenium red 5 min, then 30 μM Ca2+ 30 min",80%
same,inhibition of Ca2+ induced ΔΨm loss,"[4]; 10 μM Ruthenium red 5 min, then 30 μM Ca2+ 30 min, JC-1 orange fluorescence",80%
same,effect on alamethicin induced MMP (in words),[4],not affected
"N#CC(C#N)=NNc1cccc(Cl)c1 [CCCP, carbonyl cyanide meta-chlorophenylhydrazone]",changes of JC-1 orange fluorescence (ΔΨm) (in words),[2],rapid decrease in JC-1 orange fluorescence
same,changes of mitochondrial size (FSC) and structure (SSC) (in words),[3],low but significant granularity (SSC) decrease without detectable size (FSC) changes
RKKRRQRRRCGGLETRTETWMSSEGAWKQIQKVETWALRH [SEQ ID N^o 3],apoptosis of HeLa cells (in words),[1],induction of apoptosis in a dose and time related effect
same,release of Cytochrome C from isolated mitochondria,[5],release of Cytochrome C
same,specific swelling of isolated mitochondria (in words),[6],dose-dependant specific swelling
EHWSYWLRPGGGGGSLLFIHFRIGCRHSRIG [SEQ ID N^o 11],% of apoptotic cells,[7],92%
same,% of apoptotic cells,[8],18%
EHWSYWLRPG-GGGGS,% of apoptotic cells,[7],7%
same,% of apoptotic cells,[8],8%
same,induction of MMP / activity on isolated mitochondria (in words),[3],not active on mitochondria
[Ca+2] [Calcium],changes of JC-1 orange fluorescence (ΔΨm) (in words),[2],decrease in JC-1 orange fluorescence
same,changes of mitochondrial size (FSC) and structure (SSC) (in words),[3],dose-dependent SSC decrease and FSC increase
GG*CRGDMFG*CG,induction of MMP / activity on isolated mitochondria (in words),[3],not found inducing MMP
CO[C@H](C/C=C\C=C\CC/C=C/C[C@H](C)/C=C/C(=C\C(=O)O)CC(=O)O)/C(C)=C\C=C(/C)C(=O)O [bongkrekic acid],effect on Ca2+ induced SSC decrease (in words),[4]; [9],partly affect
same,effect on Ca2+ induced ΔΨm loss (in words),[4]; [9],strongly reduces
same,effect on alamethicin induced MMP (in words),[4],not affected
